Experimental data: patent US5846755A (priority 1995, dated 1998)

What was measured:
[1] = target: T1, recombinant human gelatinase B (Homo sapiens, UniProt P14780); assay: In vitro effects on recombinant human gelatinase B; type: biochemical
T1 construct: purchased Stangeways Laboratories, Cambridge, UK (so in the source)
Protocol: Assays on human gelatinase B, another enzyme released by tumor cells, were performed using also, in this case, the protein obtained by recombinant biotechnology Stangeways Laboratories, Cambridge, UK). As usual, the enzymatic activity was followed over time, measuring the amount of fluorescent substrate cleaved by the enzyme, in the presence or absence of synthetic compounds (Perkin Elmer L50 B fluorimeter).

[2] = system: blood cells that migrate to the inflamed site (lymphocytes, neutrophils, eosinophils, macrophages); assay: Hypereosinophilia induced in rats by Sephadex G-200 resin; type: in vivo; settings: hypereosinophilia induced by Sephadex G-200 resin, result in words
Protocol: As the metalloproteinases produced by the cells of mammals are of fundamental importance to allow the cells to migrate from one tissue to another within the organism, Compounds 9, 18, 25 and 31 of the present invention, together with the compounds Z--Pro--Leu--Cyt and FUR--Leu--Cyt (Examples 1 and 8, respectively, of WO 92/06018) were tested on hypereosinophilia induced in rats by Sephadex G-200 resin.

[3] = system: human melanoma cell line VMM-5; assay: Matrigel-based invasion assay with human melanoma cells; type: cell-based; settings: Concentration 500 micro M, VMM-5 cells, 20 hours
Source text: In order to obtain information about the possible interference of the synthesized compounds on the ability of tumor cells to migrate through the body (metastatization), the human melanoma cell line VMM-5 was used in the matrigel-based invasion assay, in which basal membrane matrigel (Becton Dickinson) and tissue culture inserts with 8 microns pore size in 24 well tissue culture plates were used as Boyden chambers. The chambers were coated with diluted matrigel and allowed to dry overnight; they were then reconstituted with serum free medium, and melanoma cells (4,000,000/ml) were dispensed in each insert. In the lower chambers, a chemoattractant was included. The chambers were finally placed in a humidified CO2 incubator at 37° C., and incubated for 20 hours. The inserts were dried and the cells on the upper surface removed. The polycarbonate filters were fixed with methanol, stained with hematoxylin and eosin, and counted with a microscope. Inhibition of migration due to compounds has been expressed as a percentage of the total number of migrated cells in the control chambers containing only the buffer in which the compounds were dissolved.

[4] = system: release of active TNF in human cell culture medium (Jurkat); assay: Release of active TNF from Jurkat cells (ELISA); type: cell-based; settings: 72 hours incubation, stimulated with PMA and ionophore calcium
Protocol: It is well known that TNF plays a fundamental role in certain physiological defense responses but, on the other hand, causes severe damage when it is released into circulation in excessive amounts or for prolonged periods. […] An attempt was, therefore, made to see whether certain compounds selected from among those of the present application and of WO 92/06108 were capable of blocking the release of active TNF in human cell culture medium (Jurkat). The cells were incubated in the presence or in the absence of metalloproteinase inhibitor for 72 hours; the release of TNF was then stimulated using activators (PMA and ionophore calcium), and the Factor was dosed into the culture medium using the ELISA test (Genzyme).

[5] = target: enzyme purified from the venom of Crotalus Adamanteus (hemorrhagin) (Crotalus adamanteus, UniProt P34179); type: biochemical; settings: for IC50: read-out: IC50
enzyme purified from the venom of Crotalus Adamanteus (hemorrhagin), sequence (P34179 whole entry, looked up): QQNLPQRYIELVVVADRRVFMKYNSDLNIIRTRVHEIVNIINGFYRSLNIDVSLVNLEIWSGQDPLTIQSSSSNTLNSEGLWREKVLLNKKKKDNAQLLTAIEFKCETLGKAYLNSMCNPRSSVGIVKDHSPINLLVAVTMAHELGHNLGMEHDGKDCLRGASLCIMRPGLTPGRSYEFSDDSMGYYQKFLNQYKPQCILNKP

[6] = target: metalloproteinase purified from snake venom, Bothrops Jararaca; assay: Inhibition of metalloproteinase purified from Bothrops Jararaca venom; type: biochemical; settings: Table 5; unit M
[7] = target: metalloproteinase purified from snake venom, Bothrops Atrox; assay: Inhibition of metalloproteinase purified from Bothrops Atrox venom; type: biochemical; settings: Table 5; unit M
[8] = target: metalloproteinase purified from snake venom, Echis Carinatus; assay: Inhibition of metalloproteinase purified from Echis Carinatus venom; type: biochemical; settings: Table 5; unit M
[9] = target: T2, recombinant human gelatinase A (Homo sapiens, UniProt P08253); assay: In vitro effects on recombinant human gelatinase A; type: biochemical
T2 construct: purchased Strangeways Laboratories, Cambridge, UK
T2 sequence (P08253 110-660): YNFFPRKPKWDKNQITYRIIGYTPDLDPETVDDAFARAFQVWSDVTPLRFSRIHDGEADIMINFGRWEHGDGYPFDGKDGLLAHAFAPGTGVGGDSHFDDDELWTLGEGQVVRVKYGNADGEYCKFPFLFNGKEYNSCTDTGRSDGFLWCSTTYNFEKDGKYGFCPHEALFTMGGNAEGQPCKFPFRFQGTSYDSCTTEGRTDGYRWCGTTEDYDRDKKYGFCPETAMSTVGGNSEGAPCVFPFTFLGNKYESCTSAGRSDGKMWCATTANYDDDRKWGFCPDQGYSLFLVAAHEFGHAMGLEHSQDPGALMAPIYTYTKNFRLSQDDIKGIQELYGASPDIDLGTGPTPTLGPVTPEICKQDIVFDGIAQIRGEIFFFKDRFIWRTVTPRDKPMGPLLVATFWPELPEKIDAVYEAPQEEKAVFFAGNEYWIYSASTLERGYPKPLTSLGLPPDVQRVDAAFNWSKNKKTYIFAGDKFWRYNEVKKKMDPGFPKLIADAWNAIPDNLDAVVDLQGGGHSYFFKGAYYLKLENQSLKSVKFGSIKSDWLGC
Source text: Assays on human gelatinase A, an enzyme released in high concentration by any kind of tumor cells during the process of metastatization, and recognized also as a product of stimulated cells in many pathological processes, have been performed using the protein obtained by recombinant biotechnology (Strangeways Laboratories, Cambridge, UK). The enzymatic activity has been followed over time, measuring the amount of fluorescent substrate cleaved by the enzyme, in the presence or absence of synthetic compounds (Perkin Elmer L50 B fluorimeter).

[10] = target: neutrophil collagenase (recombinant human) (Homo sapiens, UniProt P22894); assay: In vitro assays on recombinant human collagenase; type: biochemical
neutrophil collagenase (recombinant human), sequence (P22894 101-467): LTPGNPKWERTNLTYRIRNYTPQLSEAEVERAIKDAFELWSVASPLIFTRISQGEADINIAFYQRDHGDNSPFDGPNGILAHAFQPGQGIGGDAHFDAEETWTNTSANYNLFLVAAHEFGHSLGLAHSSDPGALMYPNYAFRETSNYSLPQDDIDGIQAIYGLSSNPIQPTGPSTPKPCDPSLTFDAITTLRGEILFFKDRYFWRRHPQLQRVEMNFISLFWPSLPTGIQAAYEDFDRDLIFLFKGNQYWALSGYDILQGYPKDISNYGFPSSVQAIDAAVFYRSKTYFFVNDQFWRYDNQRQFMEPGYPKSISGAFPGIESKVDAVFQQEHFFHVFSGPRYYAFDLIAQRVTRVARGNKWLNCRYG
Protocol: Using the same enzymatic determination already described (fluorimetric detection of cleavage of a substrate peptide containing a fluorescent moiety), some of the compounds were tested on neutrophil collagenase, an enzyme described as participating in any kind of inflammatory reaction in mammalian bodies. In this case, the purified enxzyme was also obtained by recombinant means.

[11] = system: microhemorrhages induced by histamine; assay: Histamine-induced microhemorrhages (capillary permeability) in hamsters; type: in vivo
[12] = system: TNF release from another strain of human cells in culture (clone T); assay: TNF release from human cells in culture (clone T); type: cell-based
[13] = Resistance to proteolytic activity in stomach juices (rat stomach homogenate, HPLC); settings: 37° C.
Protocol: To check if the compounds of the present invention are resistant to proteolytic activity in stomach juices and, therefore, could be administered orally, the stomachs of fasting rats were homogenized in physiological solutions (1:1). 300 microliters of solutions of the compounds (1 mg/ml of saline) were incubated with 0.5 ml of stomach homogenates (37° C.).

[14] = system: hemorrhages and lethal results induced by snake venom; assay: Inhibition of hemorrhages and lethality induced by snake venom in mice; type: in vivo

T1 sequence (P14780 94-707): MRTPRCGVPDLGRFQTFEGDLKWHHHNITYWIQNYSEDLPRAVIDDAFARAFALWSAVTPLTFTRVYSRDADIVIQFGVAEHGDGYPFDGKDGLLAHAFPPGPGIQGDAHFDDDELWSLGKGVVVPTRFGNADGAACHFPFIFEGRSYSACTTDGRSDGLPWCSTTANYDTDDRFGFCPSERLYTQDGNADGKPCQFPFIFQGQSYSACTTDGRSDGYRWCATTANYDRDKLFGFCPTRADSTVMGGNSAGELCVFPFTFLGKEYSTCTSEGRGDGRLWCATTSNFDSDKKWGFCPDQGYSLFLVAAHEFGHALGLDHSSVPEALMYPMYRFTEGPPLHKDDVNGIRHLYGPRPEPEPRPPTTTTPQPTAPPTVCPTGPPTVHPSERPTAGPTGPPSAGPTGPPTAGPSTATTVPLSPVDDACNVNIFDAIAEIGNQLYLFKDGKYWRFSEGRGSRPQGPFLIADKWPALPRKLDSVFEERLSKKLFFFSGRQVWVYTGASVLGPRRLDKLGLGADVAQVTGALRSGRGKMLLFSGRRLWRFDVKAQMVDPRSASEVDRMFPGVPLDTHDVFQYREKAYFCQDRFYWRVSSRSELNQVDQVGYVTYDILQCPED

| Compound | Effect on number of blood cells that migrate to the inflamed site [2] | % Inhibition of Invasion [3] [%] | IC50 of inhibition of TNF release by cells [4] | IC50 [5] [µM] | IC50 [6] [µM] | IC50 [7] [µM] | IC50 [8] [µM] | further results |
| --- | --- | --- | --- | --- | --- | --- | --- | --- |
| CC(C)C[C@H](NC(=O)c1ccccn1)C(=O)N1Cc2[nH]c3ccccc3c2C[C@H]1C(=O)O [Compound 9, PIC--(L)--Leu--(S)--Cyt--OH] | interfered with the number of blood cells that migrate to the inflamed site | 94 | around 8 mcg/ml | 0.027 | – | – | – | % Inhibition ([1]; Concentration 1.1 × 10^-5 M): 20% |
| Cc1ccc(C(=O)N[C@@H](CC(C)C)C(=O)N2Cc3[nH]c4ccccc4c3C[C@H]2C(=O)O)cn1 [Compound 22, 6-MNC--(L)--Leu--(S)--Cyt--OH] | – | – | – | 0.11 | 21 | 3.2 | 14 | % Inhibition ([9]; Concentration 8.0 × 10^-7 M): 47% |
| 4-MBZ--(L)--Trp--(S)--Cyt--OH [Compound 25] | interfered with the number of blood cells that migrate to the inflamed site | – | around 0.7 mcg/ml | 0.054 | – | – | – | % Inhibition ([10]; Concentration 5.2 × 10^-5 M): 23% |
| CC(C)C[C@H](NC(=O)c1cc2ccccc2o1)C(=O)N1Cc2[nH]c3ccccc3c2C[C@H]1C(=O)O [Compound 15, 2-BZF--(L)--Leu--(S)--Cyt--OH] | – | – | – | 0.04 | 14 | 8.2 | 2 | – |
| Z--Pro--Leu--Cyt | interfered with the number of blood cells that migrate to the inflamed site | 70 | around 5 mcg/ml | – | – | – | – | % Inhibition ([1]; Concentration 9.0 × 10^-6 M): 32%; Dose capable of blocking 50% of effects ([11]; administered orally): around 50 mcg/Kg; Dose capable of blocking 50% of effects ([11]; injected intravenously): around 50 mcg/Kg; Blocking microhemorrhages induced by histamine ([11]; result in words): extremely powerful in blocking microhemorrhages induced by histamine; % Inhibition ([10]; Concentration 1.8 × 10^-5 M): 23%; IC50 of inhibition of TNF release [12]: lower than 1 mcg/ml; % Inhibition ([9]; Concentration 1.8 × 10^-7 M): 64% |
| CC(C)C[C@H](NC(=O)c1cnccn1)C(=O)N1Cc2[nH]c3ccccc3c2C[C@H]1C(=O)O [Compound 18, 2-PZC--(L)--Leu--(S)--Cyt--OH] | interfered with the number of blood cells that migrate to the inflamed site | – | – | 0.21 | 8.4 | 5.2 | 7 | – |
| O=C(N[C@@H](CC1CCCCC1)C(=O)N1Cc2[nH]c3ccccc3c2C[C@H]1C(=O)O)c1ccco1 [Compound 10, 2-FUR--(L)--Cha--(S)--Cyt--OH] | – | 99 | around 200 mcg/ml | 0.025 | – | – | – | % Inhibition ([1]; Concentration 1.1 × 10^-5 M): 32%; % Inhibition ([10]; Concentration 2.1 × 10^-5 M): 51%; Residue after 60 Minutes ([13]; 60 minutes): 100%; Residue after 120 Minutes ([13]; 120 minutes): > 95% |
| CC(C)C[C@H](NC(=O)c1ccco1)C(=O)N[C@@H](Cc1c[nH]c2ccccc12)C(=O)O [2-FUR--Leu--Trp] | – | – | – | – | – | – | – | % Inhibition ([1]; Concentration 1.0 × 10^-5 M): 22%; Protection of mice from death by injection of the venom ([14]; dose of 33 mcg/mouse, even when administered after the venom (up to 30 minutes)): capable of protecting the mice from death; Neutralizing the toxic effects of hemorrhagic factors of various snake venom ([14]; mice, compound incubated with the hemorrhagic factors): capable of neutralizing the toxic effects thereof; In vitro inhibition of the metalloproteinase purified from the venom of Crotalus Adamanteus [5]: excellent in vitro inhibitor; % Inhibition ([10]; Concentration 2.4 × 10^-5 M): 12%; % Inhibition ([9]; Concentration 1.0 × 10^-7 M): 41% |
| FUR--Leu--Cyt | interfered with the number of blood cells that migrate to the inflamed site | 69 | – | – | – | – | – | – |
